Molecular target: T1, Integrin alpha-L (Mus musculus, UniProt P24063)
T1 sequence (P24063 whole entry): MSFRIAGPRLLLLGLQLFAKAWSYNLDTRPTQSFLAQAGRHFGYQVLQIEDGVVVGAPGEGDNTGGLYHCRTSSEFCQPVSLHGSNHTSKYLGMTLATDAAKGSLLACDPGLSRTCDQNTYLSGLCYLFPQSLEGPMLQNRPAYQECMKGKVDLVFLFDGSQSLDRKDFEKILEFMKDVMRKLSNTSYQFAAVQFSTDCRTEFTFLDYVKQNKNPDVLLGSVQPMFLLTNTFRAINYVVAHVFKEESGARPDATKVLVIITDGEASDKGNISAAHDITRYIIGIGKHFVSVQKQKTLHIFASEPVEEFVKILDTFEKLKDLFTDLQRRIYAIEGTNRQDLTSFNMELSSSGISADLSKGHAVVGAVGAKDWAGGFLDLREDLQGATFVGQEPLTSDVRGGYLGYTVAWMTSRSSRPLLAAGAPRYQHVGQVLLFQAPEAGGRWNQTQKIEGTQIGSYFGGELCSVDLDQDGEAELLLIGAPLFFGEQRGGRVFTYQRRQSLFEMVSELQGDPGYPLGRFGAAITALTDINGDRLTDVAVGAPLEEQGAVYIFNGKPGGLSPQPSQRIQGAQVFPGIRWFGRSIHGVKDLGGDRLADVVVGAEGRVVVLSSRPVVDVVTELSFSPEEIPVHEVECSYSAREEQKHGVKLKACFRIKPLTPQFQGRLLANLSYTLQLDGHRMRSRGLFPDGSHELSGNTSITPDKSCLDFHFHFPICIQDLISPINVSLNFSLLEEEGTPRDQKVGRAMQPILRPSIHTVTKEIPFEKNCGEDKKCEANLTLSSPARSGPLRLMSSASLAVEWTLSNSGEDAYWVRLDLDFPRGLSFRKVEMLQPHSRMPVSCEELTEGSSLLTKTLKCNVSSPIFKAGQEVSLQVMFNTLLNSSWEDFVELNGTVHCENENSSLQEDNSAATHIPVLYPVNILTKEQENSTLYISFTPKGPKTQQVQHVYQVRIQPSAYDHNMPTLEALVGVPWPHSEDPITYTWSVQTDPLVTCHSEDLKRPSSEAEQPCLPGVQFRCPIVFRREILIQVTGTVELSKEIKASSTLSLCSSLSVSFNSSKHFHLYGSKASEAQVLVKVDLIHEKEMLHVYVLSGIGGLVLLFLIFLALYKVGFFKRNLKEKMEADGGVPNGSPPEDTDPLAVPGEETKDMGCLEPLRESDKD
Test: modulators of CD8 T cell-vesicle binding, dose response, powder samples, mouse 2C CD8+ cells (AID 504565)

EC50: 9.02 µM
Structure (SMILES): O=C(c1ccc(-n2c(O)c3c(c2O)CC(Cl)=CC3)cc1)N1CCCCC1 [5-chloro-2-[4-[oxo(1-piperidinyl)methyl]phenyl]-3a,4,7,7a-tetrahydroisoindole-1,3-dione]

From BindingDB's records for doi:10.7270/Q2XW4H88 (Nmmlsc, 2011)
